Where two headings read alike, the source gives them in different places.
Columns and labels:
linearized plasmid DNA = experiment: Gel mobility shift assay of peptide plasmid DNA complex formation; conditions: 200 ng linearized plasmid DNA, 1% agarose gel
Method: Non-covalent attachment was tested using a gel mobility shift assay. The gel mobility shift assay was used to determine the minimum peptide concentration needed bind to plasmid DNA and cause it to shift during electrophoresis. Based on a peptide-DNA charge ratio calculation increasing concentrations of peptide were added to 200 ng of linearized plasmid DNA until the charge of the DNA was neutralized by the peptide causing a mobility shift in the DNA during electrophoresis in a 1% agarose gel.

[1] = system: C. reinhardtii (Nit1-305,cw-15); experiment: Transformation of algal cells with plasmid DNA and CPP, selection on Zeocin plates; format: cell-based, Chlamydomonas reinhardtii
Method: Transformation experiments were conducted. […] Cell culture was grown in 900 ml of SGII+NH4NO3 medium, divided in 3 aliquots into 500 ml Erlenmeyer flasks each containing 300 ml of the culture. The culture was grown for two days until the cell growth reached mid-log phase and cell density reached to 1×10^6 cells ml^−1 (OD at 680 nm=0.6-0.8). Cells were collected at 3000 rpm for 10 minutes to obtain 9×10^8 cells in total. In all transformation experiments for Chlamydomonas reinhardtii, SGII+NH4NO3 medium was used in downstream experimental steps. […] Cells were washed after grown in SGII-NH4NO3 medium to remove NH4 traces. Cells were divided into 3 aliquots each of 3×10^8 cells. Two aliquots of the harvested cells were treated with cell wall degrading enzymes one with cellulase from Aspergillus niger (Sigma, Canada) and the other with lysozyme from chicken egg white (Sigma, Canada).
Lysozyme treatment: Lysozyme from chicken white egg was purchased (Sigma-Aldrich, Canada). Enzymatic assay protocol was modified from Sigma-Aldrich product information publication. For cell lysis/cell wall disruption, use a freshly prepared lysozyme solution (10 mg/ml) in sterilized 10 mM Tris-HCL, pH 8.0. Add 25 μl of a freshly prepared lysozyme to the required number (−5.0×10^7) of cells/transformation reaction, mix by vortexing for 3 seconds. Incubate the lysis mixture for 15 minutes at 37° C. […] Centrifuge the cells and discard the supernatant containing lysozyme. To stop the reaction, wash the cells twice with media and collect the cells at 3000 rpm for 10 minutes. Proceed to downstream applications and/or transformation experiment.
Cellulase treatment: Cellulase (EC 3.2.1.4) was purchased from Sigma-Aldrich, Canada. Enzymatic assay protocol was modified from Sigma-Aldrich product information publication. Just before use, prepare solution containing 8 units/ml (26.7 mg/ml) of cellulase in sterilized cold distilled water. Add 500 μl of a freshly prepared cellulase solution to the required number (−5.0×10^7) of cells, immediately mix by swirling. Incubate the lysis mixture for 15 minutes at 37° C. […] Centrifuge the cells and discard the supernatant containing lysozyme. To stop the reaction, wash the cells twice and collect the cells at 3000 rpm for 10 minutes. Proceed to downstream applications and/or transformation experiment.
The third aliquot was not treated with any enzyme.
After enzymatic treatments, the cells were washed twice with the medium to stop the reaction. Cells of each aliquot were re-suspended in fresh medium (cell concentration=3×10^8ml^−1) and used 300 μl of cell suspension (−5×10^7 number of cell) in each transformation reaction. Cells were transferred to 15 ml Falcon tube containing sterilized 300 mg glass beads of 0.5 mm size. Just prior to starting the next step, 1 μg plasmid DNA and one of the four ATT(s) tested were mixed. One of the four ATT-plasmid mixtures were added to the algal cells and beads suspended in media. The cells, ATT and DNA mixture and the beads were vortexed for 15 seconds. 10 ml of medium was added to the transformation reaction, and the tubes were incubated overnight with shaking at 100 rpm in incubator to allow cell recovery and expression of the gene. The cell suspensions were transferred to fresh tubes to remove beads and cells were spun by centrifugation for 5 minutes at 3000 rpm. The cells were re-suspended in 2 ml of 0.5% agar medium by gentle pipetting and were plated on 2% agar medium supplemented with 10 μg ml^−1 Zeocin.

[2] = system: C. reinhardtii (Nit1-305,cw-15); experiment: PCR screening of transformant colonies (Zeocin specific primers); format: cell-based, Chlamydomonas reinhardtii; conditions: pSP124S linearized with KpnI, no pretreatment; 155 bp expected product (FIG. 11 panel A)
Method: Transformed colonies were picked from the selection plates and inoculated into liquid selection media to multiply cells to be used for genomic DNA isolation. Genomic DNA from 1×10^5 cells of untransformed algae and the transformants were isolated using DNeasy™ Blood & Tissue Kit (QIAGEN®). ReadyMix™ Taq PCR Reaction Mix with MgCl2 (Sigma, Canada) was used to prepare 20 μl PCR reactions. Thermal cycling conditions were initial denaturation at 95° C. for 5 minutes and 40 cycles of 95° C. for 30 s, 65° C. for 30 s and 72° C. for 1.5 min. A final primer extension cycle was performed at 72° C. for 10 min.

[3] = pSP124S linearized with EcoRI, 0.5 mm bead disruption, Zeocin 10 μg/ml (FIG. 9)
[4] = pSP124S linearized with KpnI, 0.5 mm bead disruption, Zeocin 10 μg/ml (FIG. 8)

Substance | amount of peptide at which the shift occurred (linearized plasmid DNA) [ng] | transformed colonies on selection plate [1, 3] | transformed colonies on selection plate [1, 4] | transformation rate compared with the other three peptides [1] | transformed colonies on selection plate [1] | PCR product with Zeocin specific primers in transformant colonies [2]
(Arg)9 (RRRRRRRRR) [ATT4] | 120 | transformed | transformed | – | – | –
Transportan [ATT1] | 339 | – | – | higher | transformed | Lane 1 is positive
Tat (48-57) (GRKKRRQRRR) [ATT2] | 80 | transformed | transformed | – | – | Lane 7 and 8 are positive

Source: patent US20130065314A1, “ALGAL TRANSFORMATION SYSTEMS, COMPOSITIONS AND METHODS” (PHYTOCENTRIC BIOTECH INC., priority 2011, published 2013)
